Legend:
Test in all cases: relative viability (nuclei count vs DMSO), 5 days (fraction); higher = more cells survive
TGX 221 + Tozasertib = compound: CC1=CN2C(=O)C=C(N=C2C(=C1)C(C)NC3=CC=CC=C3)N4CCOCC4 [TGX 221] + Cc1cc(Nc2cc(N3CCN(C)CC3)nc(Sc3ccc(NC(=O)C4CC4)cc3)n2)n[nH]1 [Tozasertib] (partner 0.1 µM)
How it was run: (§1)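 Nuclei were stained with Hoechst during a one-step fixation (final 0.05% Triton X-100, 1% formaldehyde, 1 ug/ml Hoechst) carried out 5 days after dosing, then counted on 4× images. The cells, lung cancer lines in 1536-well plates, had been dosed by pin tool the day after seeding with one drug alone or a fixed anchor-drug dose plus five library-drug doses (not always all listed) in √10 steps. Relative viability is the nuclei count in treated wells divided by that in vehicle wells, and each value is the median of duplicate plates.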

[1] = compound: O=C(CCCCCCNC(=O)c1cnc(N(c2ccccc2)c2ccccc2)nc1)NO [Ricolinostat] + O=C(CCCCCCC(=O)Nc1ccccc1)NO [Vorinostat] (partner 1 µM)
How it was run: as §1

[2] = compound: O=C(CCCCCCNC(=O)c1cnc(N(c2ccccc2)c2ccccc2)nc1)NO [Ricolinostat] + C[C@@H](Oc1cc(-c2cnn(C3CCNCC3)c2)cnc1N)c1c(Cl)ccc(F)c1Cl [Crizotinib] (partner 1 µM)
How it was run: as §1

[3] = compound: C1=CC=C(C(=C1)C2=CC=C(C=C2)C3=CSC4=C3C(=C(C(=O)N4)C#N)O)O + COc1cccc2cc(-c3nc([C@H]4CC[C@H](C(=O)O)CC4)n4ncnc(N)c34)[nH]c12 [OSI-027] (partner 0.5 µM)
How it was run: as §1

Cell Line	relative viability (TGX 221 + Tozasertib; first compound 0.08 µM)	relative viability (TGX 221 + Tozasertib; first compound 0.253 µM)	relative viability (TGX 221 + Tozasertib; first compound 0.8 µM)	relative viability (TGX 221 + Tozasertib; first compound 2.53 µM)	relative viability (TGX 221 + Tozasertib; first compound 8 µM)	relative viability ([1]; first compound 0.08 µM)	relative viability ([1]; first compound 0.253 µM)	relative viability ([1]; first compound 0.8 µM)	relative viability ([1]; first compound 2.53 µM)	relative viability ([2]; first compound 0.08 µM)	relative viability ([2]; first compound 0.253 µM)	relative viability ([2]; first compound 0.8 µM)	relative viability ([2]; first compound 2.53 µM)	relative viability ([3]; first compound 0.08 µM)	relative viability ([3]; first compound 0.253 µM)	relative viability ([3]; first compound 0.8 µM)	relative viability ([3]; first compound 2.53 µM)	relative viability ([3]; first compound 8 µM)
CAL-12T	0.324	0.329	0.322	0.314	0.2	0.801	0.524	0.698	0.379	0.623	0.545	0.571	0.618	0.589	1.14	0.591	0.59	0.431
201T	0.915	0.933	0.955	0.833	0.808	0.818	0.951	0.959	0.843	0.926	1.04	1.08	1.07	0.709	0.665	0.795	0.699	0.531
HCC-366	0.0834	0.113	0.283	0.0517	0.0636	0.296	0.327	0.313	0.165	0.49	0.464	0.428	0.188	1.32	1.18	0.875	0.945	0.719
NCI-H1944	0.237	0.223	0.241	0.244	0.2	0.493	0.539	0.488	0.422	1.02	0.95	0.878	0.58	0.39	0.436	0.336	0.367	0.4
NCI-H1651	0.602	0.649	0.696	0.566	0.418	0.459	0.594	0.411	0.395	0.843	0.84	0.88	0.816	0.66	0.76	0.715	0.576	0.448
LCLC-97TM1	0.214	0.179	0.191	0.239	0.143	0.487	0.556	0.628	0.333	0.363	0.435	0.277	0.286	0.406	1.02	0.72	0.707	0.425
LC-2-ad	0.451	0.479	0.454	0.402	0.396	0.68	0.67	0.64	0.458	–	0.44	0.445	0.484	0.778	0.951	0.822	0.743	0.759
NCI-H2347	0.514	0.418	0.538	0.422	0.33	0.449	0.567	0.55	0.469	0.618	0.675	0.673	0.581	0.454	0.572	0.348	0.419	0.378
NCI-H2009	0.739	0.714	0.73	0.631	0.436	0.614	0.68	0.711	0.53	1.02	1.04	0.938	0.888	0.624	0.63	0.555	0.612	0.509
NCI-H1650	0.399	0.412	0.381	0.297	0.235	0.544	0.535	0.485	0.372	1.04	0.926	0.714	0.784	0.477	0.784	0.738	0.508	0.43
NCI-H650	0.665	0.639	0.665	0.712	0.596	0.355	0.434	0.367	0.296	–	0.811	0.529	0.63	0.474	0.469	0.501	0.587	0.58
NCI-H460	0.383	0.489	0.639	0.0964	0.131	0.594	0.677	0.573	0.194	1.01	0.924	0.84	0.645	0.36	0.755	0.377	0.868	0.462
HOP-62	0.372	0.416	0.34	0.387	0.316	0.572	0.537	0.478	0.292	0.912	0.855	0.924	0.87	0.795	0.728	0.591	0.958	0.756
NCI-H1703	–	–	–	–	–	–	–	–	–	0.63	1.02	0.891	0.612	–	–	–	–	–
SW 900	0.657	0.749	0.824	0.636	0.453	0.446	0.61	0.483	0.327	–	–	–	–	0.461	0.628	0.426	0.462	0.356
NCI-H1563	–	–	–	–	–	–	–	–	–	0.862	0.822	0.732	0.689	0.672	0.746	0.7	0.774	0.745
Calu-6	–	–	–	–	–	–	–	–	–	0.712	0.766	0.638	0.51	–	–	–	–	–
NCI-H1623	0.446	0.404	0.472	0.466	0.419	–	–	–	–	–	–	–	–	0.469	0.453	0.382	0.427	0.419
EBC-1	–	–	–	–	–	–	–	–	–	0.186	0.163	0.164	0.224	–	–	–	–	–
NCI-H522	0.52	0.559	0.575	0.502	0.513	0.836	0.919	0.855	0.628	–	–	–	–	0.606	0.73	0.86	0.771	0.657
NCI-H1648	0.422	–	0.563	0.406	0.45	–	0.483	0.458	0.254	–	–	–	–	0.312	–	0.224	0.27	0.311
A549	–	–	–	–	–	–	–	–	–	0.757	0.714	0.581	0.291	–	–	–	–	–
IA-LM	–	–	–	–	–	–	0.96	0.8	0.647	–	0.763	0.784	0.578	–	–	–	–	–
